# Patent US20260355169A1, “METHODS OF TREATING CANCERS USING ISOQUINOLINE OR 6-AZA-QUINOLINE DERIVATIVES” (Black Diamond Therapeutics, Inc., priority 2022, published 2026)
# pIC50: −log10 of the molar value.
# System: BaF3 BRAF-KIAA1549 fusion cells
# Assay: BaF3 BRAF-KIAA1549 fusion cell proliferation assay
# Format: cell-based
# Settings: Mus musculus, BaF3, 96 h, read-out: IC50, inhibition of cell growth, BaF3-BRAF:KIAA1549 Fusion
# Procedure: Retroviral Production: The BRAF-KIAA1549 fusion mutant was subcloned into pMXs-IRES-Blasticidin (RTV-016, Cell Biolabs, San Diego, CA). […]. Briefly, HEK 293T cells were plated in Poly-D-lysine coated 6-well plate (2.5×10^5 cells per well) and incubated overnight. The next day, retroviral plasmids (1 μg of BRAF-KIAA fusion mutant, 0.32 μg of pCMV-Gag-Pol and 0.165 μg pCMV-VSV-G) were mixed in 300 μL of Optimem (31985, Life Technologies). The mixture was incubated at room temperature for 5 minutes and then added to Optimem containing transfection reagent Lipofectamine (11668, Invitrogen) and incubated for 20 minutes. The mixture was then added dropwise to HEK 293T cells. The next day the medium was replaced with fresh culture medium and retrovirus was harvested at 24 hours.
# Generation of BRAF-KIAA1549 fusion stable cell line: BaF3 cells were plated in V-bottom 96 well plate (COSTAR #3894) in 80 μL of RPMI/10% FBS and 0.01 ng/mL mouse IL-3, supplemented with 8 μg/mL polybrene (4×10^4 cells/well). Cells were transduced with 20 μL of BRAF-KIAA1549 fusion viral supernatant by centrifuging for 30 minutes at 1000 rpm. Cells were placed in a 37 °C incubator overnight. Next day 100 μL of RPMI/10% FBS and 0.01 ng/mL mouse IL-3 was added. After 24 hours, 100 μL of cells were transferred to a 24 well plate containing 900 μL of RPMI/10% FBS and 15 μg/mL Blasticidin. Contents of the 24 well plate were sampled for cell viability via CellTiterGlo (Promega) over a 2-week period.
# Assay for cell proliferation: BaF3 BRAF-KIAA1549 fusion cells were resuspended at 1.5×10^5 c/mL in RPMI containing 10% Heat Inactivated FBS, 1% L-glutamine and dispensed in duplicate ([…]) into 384 well plates. To determine the effect of compound on cell proliferation, BaF3 BRAF-KIAA1549 fusion cells were incubated for 96 hours in the presence of vehicle control (DMSO) or compound at varying concentrations. Inhibition of cell growth was determined by luminescent quantification (Envision by Perkin Elmer) of intracellular ATP content using CellTiterGlo (Promega), according to the protocol provided by the manufacturer. To determine the IC50 values, the vehicle-treated cells were normalized as viable cells and analyzed using the CDD Vault, Collaborative Drug Discovery, Burlingame, CA (the Levenberg-Marquardt algorithm; Levenberg, K, […]; Marquardt, D., 1963).
# Table A assigns each compound a code for potency in the BaF3 BRAF-KIAA1549 fusion cell proliferation assay: A, B, C, or D. According to the code, A represents an IC50 value<20 nM; B represents an IC50 value≥20 nM and <100 nM; C represents an IC50 value≥100 nM and <500 nM; and D represents an IC50 value≥500 nM.
row,SMILES,pIC50
1,CNc1cc2ncc(-c3cc(NC(=O)c4cnn5c4CC(C)CC5)ccc3C)cc2cn1 (centres unmarked) [compound 265],> 7.70
2,Cc1ccc(NC(=O)c2ccnc(C(C)(C)F)c2)cc1-c1ccc2c3c(ncc2c1)NC(=O)C3 [compound 276],> 7.70
3,CNc1cc2ncc(-c3cc(NC(=O)c4cc(C(F)(F)F)c(F)cn4)cnc3C)cc2cn1 [compound 60],> 7.70
4,CNc1cc2ncc(-c3cc(NC(=O)c4ccnc(C(C)(C)C#N)c4)ccc3C)cc2cn1 [compound 56],7.00 to 7.70
5,CNc1cc2ncc(-c3cc(NC(=O)c4cnc5n4CCCCC5)cnc3C)cc2cn1 [compound 232],6.30 to 7.00
6,CNc1cc2ncc(-c3cc(NC(=O)c4cc([C@H](O)C(C)(F)F)ccn4)cnc3C)cc2cn1 [compound 249],7.00 to 7.70
7,CNc1cc2ncc(-c3cc(NC(=O)c4ccnc(C(C)(C)F)c4)cnc3C)cc2cn1 [compound 24],> 7.70
8,CNc1cc2ncc(-c3cc(NC(=O)c4cc(C(NC)C(F)(F)F)ccn4)ccc3C)cc2cn1 (centres unmarked) [compound 203],> 7.70
9,CNc1cc2ncc(-c3cc(NC(=O)c4cc(C(N(C)C)C(F)(F)F)ccn4)ccc3C)cc2cn1 (centres unmarked) [compound 218],7.00 to 7.70
10,CNc1cc2ncc(-c3cc(NC(=O)c4cnc5n4CC(C(F)(F)F)CC5)ccc3C)cc2cn1 (centres unmarked) [compound 220],7.00 to 7.70
11,CNc1cc2c(C#N)cc(-c3cc(NC(=O)c4ccnc(C5(F)CC5)c4)ccc3C)cc2cn1 [compound 272],7.00 to 7.70
12,CNc1cc2nc(C#N)c(-c3cc(NC(=O)c4ccnc(C(F)(F)F)c4)ccc3C)cc2cn1 [compound 79],> 7.70
13,CNc1cc2ncc(-c3cc(NC(=O)c4cnc5n4C(C)CCC5)ccc3C)cc2cn1 (centres unmarked) [compound 205],6.30 to 7.00
14,CNc1cc2ncc(-c3cc(NC(=O)c4cc([C@@H](C)C(C)(F)F)ccn4)cnc3C)cc2cn1 [compound 248],7.00 to 7.70
15,CNc1cc2ncc(-c3cc(NC(=O)N(C)c4cc(C(F)F)ccn4)ccc3C)cc2cn1 [compound 189],6.30 to 7.00
16,CNc1cc2ncc(-c3ccc(F)c(NC(=O)c4cc(C(C)(C)C#N)ccn4)c3)cc2cn1 [compound 45],6.30 to 7.00
17,CNc1cc2ncc(-c3cc(NC(=O)c4cc(C(O)C5CC5)ccn4)cnc3C)cc2cn1 (centres unmarked) [compound 201],7.00 to 7.70
18,CNc1cc2ncc(-c3cc(NC(=O)c4cccc5c4NC(=O)C5(C)C)ccc3C)cc2cn1 [compound 215],7.00 to 7.70
19,CNc1cc2ncc(-c3cc(NC(=O)c4cc(C(C)(C)C#N)ccn4)c(F)cc3Cl)cc2cn1 [compound 37],7.00 to 7.70
20,CNc1cc2ncc(-c3cc(NC(=O)c4c[nH]c5ccc(C)cc45)ccc3C)cc2cn1 [compound 263],> 7.70
21,CNc1cc2ncc(-c3cc(NC(=O)c4cc(C(C)(C)C#N)ccn4)ccc3C)cc2cn1 [compound 14],> 7.70

row,SMILES,pIC50
1,CNc1cc2ncc(-c3cc(NC(=O)c4ccnc(C(C)(F)F)c4)ccc3C)cc2cn1 [compound 9],> 7.70
2,CNc1cc2ncc(-c3cc(NC(=O)c4ccnc(C(F)(F)F)c4)ccc3C)cc2cn1 [compound 2],7.00 to 7.70
3,CNc1cc2ncc(-c3cc(NC(=O)c4cc(C(C)(C)C#N)ccn4)cc(Cl)c3C)cc2cn1 [compound 48],< 6.30
4,CNc1cc2ncc(-c3cc(NC(=O)c4n[nH]c5c4CC(C)CC5)ccc3C)cc2cn1 (centres unmarked) [compound 261],> 7.70
5,CNc1cc2ncc(-c3cc(NC(=O)c4cc(C(C)(C)C#N)ccn4)c(F)c(F)c3C)cc2cn1 [compound 51],< 6.30
6,CNc1cc2ncc(-c3cc(NC(=O)c4cccc(C(C)(C)C#N)c4)ccc3C)cc2cn1 [compound 193],> 7.70
7,CNc1cc2ncc(-c3cc(NC(=O)c4ccnc(C5(F)CC5)c4)c(F)cc3C)cc2cn1 [compound 221],7.00 to 7.70
8,CNc1cc2ncc(-c3cc(NC(=O)c4cncc(C(F)(F)F)c4)ccc3C)cc2cn1 [compound 3],> 7.70
9,CNc1cc2ncc(-c3cc(NC(=O)CN4CCC[C@H](C(F)(F)F)C4)cnc3C)cc2cn1 [compound 62],7.00 to 7.70
10,CNc1cc2ncc(-c3cc(F)c(F)c(NC(=O)c4cc(C(C)(C)C#N)ccn4)c3)cc2cn1 [compound 46],6.30 to 7.00
11,CNc1cc2ncc(-c3cc(NC(=O)c4cc(C(C)(C)C#N)ccn4)ccc3F)cc2cn1 [compound 40],7.00 to 7.70
12,CNc1cc2ncc(-c3cc(NC(=O)c4nccc(C(F)(F)F)c4F)cnc3C)cc2cn1 [compound 52],> 7.70
13,CNc1cc2ncc(-c3cc(NC(=O)c4cc(C(F)(F)F)c(C)cn4)ccc3C)cc2cn1 [compound 5],7.00 to 7.70
14,CNc1cc2ncc(-c3cc(NC(=O)C[C@@H]4C[C@H](C(F)(F)F)CCO4)cnc3C)cc2cn1 [compound 35],7.00 to 7.70
15,CNc1cc2ncc(-c3cc(NC(=O)c4cc(C5(C#N)CC5)ccn4)ccc3C)cc2cn1 [compound 16],> 7.70
16,CNc1cc2ncc(-c3cc(NC(=O)c4ccnc(C5(F)CC5)c4)ccc3C)cc2cn1 [compound 18],> 7.70
17,CNc1cc2ncc(-c3cc(NC(=O)c4cc(C(C)(C)C(N)=O)ccn4)ccc3C)cc2cn1 [compound 255],7.00 to 7.70
18,Cc1ncc(NC(=O)c2cc(C(F)(F)F)ccn2)cc1-c1ccc2c3c(ncc2c1)NC(=O)C3 [compound 274],> 7.70
19,CNc1cc2ncc(-c3cc(NC(=O)c4cc(C(C)(C)F)ccn4)cnc3C)cc2cn1 [compound 65],7.00 to 7.70
20,CNc1cc2ncc(-c3cc(NC(=O)C[C@@H]4C[C@H](C(F)(F)F)CCO4)ccc3C)cc2cn1 [compound 7],> 7.70
21,CNc1cc2ncc(-c3cc(NC(=O)c4cccc(C(O)C(F)(F)F)n4)cnc3C)cc2cn1 (centres unmarked) [compound 210],< 6.30

row,SMILES,pIC50
1,CNc1cc2ncc(-c3cc(NC(=O)c4cc(C(C)(C)C#N)ccn4)nnc3C)cc2cn1 [compound 77],7.00 to 7.70
2,CNc1cc2ncc(-c3cc(NC(=O)c4nccc(C(F)(F)F)c4Cl)ccc3C)cc2cn1 [compound 6],> 7.70
3,Cc1ncc(NC(=O)c2cc(C(C)(C)C#N)ccn2)cc1-c1cnc2cc(N)ncc2c1 [compound 176],7.00 to 7.70
4,CNc1cc2ncc(-c3cc(NC(=O)c4ccnc(C(C)(C)F)c4)ccc3C)cc2cn1 [compound 10],> 7.70
5,CNc1cc2ncc(-c3cc(NC(=O)c4n[nH]c5c4CCCC5(C)C)ccc3C)cc2cn1 [compound 262],7.00 to 7.70
6,CNc1cc2ncc(-c3cc(NC(=O)c4cccc(C(C)(F)F)c4)cnc3C)cc2cn1 [compound 200],> 7.70
7,CNc1cc2ncc(-c3cc(NC(=O)CN4CCC[C@H](C(F)(F)F)C4)ccc3C)cc2cn1 [compound 63],7.00 to 7.70
8,CNc1cc2ncc(-c3cc(NC(=O)c4cc(C(C)(C)F)ccn4)ccc3C)cc2cn1 [compound 13],6.30 to 7.00
9,CNc1cc2ncc(-c3cc(NC(=O)c4cc(C(F)F)ccn4)ccc3C)cc2cn1 [compound 11],7.00 to 7.70
10,CNc1cc2ncc(-c3cc(NC(=O)c4cnc5n4C[C@H](C)CC5)cnc3C)cc2cn1 [compound 259],7.00 to 7.70
11,CNc1cc2ncc(-c3cc(NC(=O)c4noc5c4CC(C)(C)CC5)cnc3C)cc2cn1 [compound 257],7.00 to 7.70
12,CNc1cc2ncc(-c3cc(NC(=O)c4noc5c4CCCCC5)cnc3C)cc2cn1 [compound 245],7.00 to 7.70
13,CNc1cc2ncc(-c3cc(NC(=O)c4cnc5n4CCC(C)C5)ccc3C)cc2cn1 (centres unmarked) [compound 195],< 6.30
14,CNc1cc2ncc(-c3cc(NC(=N)c4cc(C(F)(F)F)ccn4)ccc3C)cc2cn1 [compound 61],6.30 to 7.00
15,CNc1cc2ncc(-c3cc(NC(=O)c4cc(C(C)(F)F)ccn4)cnc3C)cc2cn1 [compound 23],7.00 to 7.70
16,CNc1cc2ncc(-c3cc(NC(=O)c4cccc5c4CCCC5=O)cnc3C)cc2cn1 [compound 198],< 6.30
17,CNc1cc2ncc(-c3cc(NC(=O)c4ccnc(C(F)F)c4)ccc3C)cc2cn1 [compound 8],7.00 to 7.70
18,CNc1cc2ncc(-c3cc(NC(=O)c4cnn(CC(F)(F)F)c4C)cnc3C)cc2cn1 [compound 240],< 6.30
19,CNc1cc2ncc(-c3cc(NC(=O)c4cnc5n4C[C@@H](C)CC5)ccc3C)cc2cn1 [compound 231],7.00 to 7.70
20,CNc1cc2ncc(-c3cc(NC(=O)c4noc5c4CC(F)(F)CC5)cnc3C)cc2cn1 [compound 247],7.00 to 7.70
